Test results reported in patent US20220362771A1, “USE OF DROPLET SINGLE CELL EPIGENOME PROFILING FOR PATIENT STRATIFICATION” (HiFiBio SAS, priority 2018, published 2022).
Where two headings read alike, the source gives them in different places.

What was measured:
[1] = system: HBCx-22 luminal ER+ breast PDX; details: cited from earlier work
MNase = MNase (Staphylococcus aureus, UniProt P00644); assay: EGTA inactivation of MNase activity in droplets; assay type: biochemical; details: fraction of oligonucleotide remaining measured by TapeStation, normalized to droplets without MNase
Protocol: FIG. 3 depicts the concentration of EGTA necessary to fully inactivates MNase activity in droplets. The fraction of oligonucleotide remaining after incubation was measured by TapeStation and normalized to the digestion negative control (i.e droplets without MNase). 26 mM final concentration of EGTA fully inactivated MNase in droplets.
At the end of the encapsulation, droplets are incubated off-chip for single-cell chromatin fragmentation. Cells are lysed in droplets, making their nuclear DNA accessible for MNase enzyme. The kinetic of the digestion is particularly important to yield preferentially mono-nucleosomes, which are retained in the droplet. The ideal incubation time is defined as the time necessary to get 100% of nuclear DNA fragmented into mono-nucleosomes. The digestion conditions including lysis buffer composition, MNase concentration and incubation time are precisely calibrated for each sample by performing a time-course study. The calibration is carried out as follows: 45 pl droplets containing cells, lysis buffer and MNase are produced, collected in a collection tube and placed at 37° C. for different incubation time. At each time point, a fraction of droplets is broken and MNase immediately inactivated by addition of EGTA (see FIG. 3). DNA fragments are then purified and analyzed by electrophoresis. […]

[2] = system: HBCx-95 triple-negative breast tumor PDX; assay: breast tumor PDX model of acquired resistance to Capecitabine; assay type: in vivo, mice
Protocol: (a) n=6 mice with HBCx-95 derivatives were treated with Capecitabine for 6 weeks. Graphs represent relative tumor volumes (RTV, mm3) with time. Mice with recurrent tumors were treated for a second round of Capecitabine when PDX reached a volume of over 200 mm3 (mice #35, #40 & #33). […] Samples studied in manuscript are indicated with a dashed rectangle. (b) Histograms of the distribution of scChIP-seq raw and unique sequencing reads per cell in untreated HBCx-95 and Capecitabine-resistant HBCx-95-CapaR PDX. (c) Scatter plot displaying the log 2 enrichments in cumulative single-cell versus bulk H3K27me3 ChIP-seq data, calculated based on the counts per million mapped reads in 50 kb genomic bins. Pearson correlation score and p-value are computed genome-wide. (d) Distribution of the log 2 enrichments in 50 kb genomic bins for cumulative single-cell and bulk H3K27me3 ChIP-seq data. Amplitude between maximum and minimum log 2 enrichments are indicated on the top right for each ChIP-seq method (either bulk or single-cell).
It was profiled the H3K27me3 landscape at single-cell resolution for both sensitive and resistant xenografts, HBCx-95 and HBCx-95-CapaR (FIG. 17b), and it was also performed scRNA-seq to evaluate transcriptional heterogeneity within the same cell suspension (FIG. 18a). Cumulative single-cell chromatin profiles match bulk ChIP-seq profiles (FIG. 17c-d, r=0.89 with p<10-15).

CC/C(=C(\c1ccccc1)c1ccc(OCCN(C)C)cc1)c1ccccc1 [Tamoxifen]
tumor response to Tamoxifen ([1]; HBCx-22-TamR tumor derivative, previously characterized): acquired resistance | tumor response to Tamoxifen ([1]; HBCx-22 PDX): responsive

O=C(O)CN(CCOCCOCCN(CC(=O)O)CC(=O)O)CC(=O)O [EGTA]
final concentration of EGTA that fully inactivated MNase in droplets (MNase): 26 mM

CCCCCOC(=O)Nc1nc(=O)n([C@@H]2O[C@H](C)[C@@H](O)[C@H]2O)cc1F [Capecitabine]
tumor response to Capecitabine (relative tumor volume) ([2]; mouse #40, recurrent tumor, second round of Capecitabine, PDX extracted at 1080 mm3 as HBCx-95-CapaR): did not respond | tumor response to Capecitabine ([2]; xenograft derivatives from an individual patient (HBCx-95), before two cycles of treatment): initially responsive
